According to US10718029B2, “Treatment targeting oncology and neurodegeneration” (priority 2008, dated 2020):
Read-outs that look alike come from different tables or passages of the source.

Key:
TGF Béta = details: publication of Lecanda and Gold, March 2009; cited from earlier work
LIV21 [1] = experiment: Fluorescence localization of LIV21 in nuclei during TPA treatment; format: cell-based, human; details: TPA 25 nM, after 12 h
Protocol: (§1) During this TPA treatment (25 nM), when E2F4, p130 and LIV21 were studied (green fluorescence) in the nuclei labelled (DNA) with propidium iodide (red fluorescence), the following were observed: […]

PKCε = target: T1, PKCε (Homo sapiens, UniProt Q02156); experiment: Western blotting of PKCε expression as a function of the duration of TPA treatment; format: cell-based; details: MCF-7 cells
T1 construct: endogenous in cells; host or cells: MCF-7
T1 sequence (Q02156 1-737): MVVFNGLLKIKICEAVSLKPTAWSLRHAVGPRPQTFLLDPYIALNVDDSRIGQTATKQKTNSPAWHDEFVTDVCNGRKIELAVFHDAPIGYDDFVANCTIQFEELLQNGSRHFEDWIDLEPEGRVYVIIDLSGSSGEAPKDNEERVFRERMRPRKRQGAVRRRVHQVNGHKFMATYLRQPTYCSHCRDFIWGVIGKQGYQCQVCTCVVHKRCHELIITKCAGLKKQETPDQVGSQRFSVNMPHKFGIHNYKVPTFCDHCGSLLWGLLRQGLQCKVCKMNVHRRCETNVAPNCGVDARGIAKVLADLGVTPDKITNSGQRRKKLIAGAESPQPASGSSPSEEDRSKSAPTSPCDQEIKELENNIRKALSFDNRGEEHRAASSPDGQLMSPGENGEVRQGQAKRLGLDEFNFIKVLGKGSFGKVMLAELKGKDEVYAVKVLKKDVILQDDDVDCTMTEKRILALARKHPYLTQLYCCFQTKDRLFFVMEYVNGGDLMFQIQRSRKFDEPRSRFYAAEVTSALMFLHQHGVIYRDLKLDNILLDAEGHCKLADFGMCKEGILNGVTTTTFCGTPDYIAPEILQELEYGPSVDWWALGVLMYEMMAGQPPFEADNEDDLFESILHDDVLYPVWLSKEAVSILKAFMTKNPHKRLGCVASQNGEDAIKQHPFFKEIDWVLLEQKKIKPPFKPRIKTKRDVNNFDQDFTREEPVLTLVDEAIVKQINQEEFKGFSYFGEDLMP
From the text: (§2) Western blotting study: Given that the protein sequence of LIV21 has putative PKCε phosphorylation sites, including two specific for PKCε, the inventor tested the variation in the expression of this PKC as a function of the duration of TPA treatment. […] The expression of PKCzeta (PKCζ) is used as an internal control since it is not sensitive to TPA.

p130 = experiment: Fluorescence localization of p130 in nuclei during TPA treatment; format: cell-based, human; details: TPA 25 nM, after 12 h
Protocol: as §1

E2F4 = experiment: Fluorescence localization of E2F4 in nuclei during TPA treatment; format: cell-based, human; details: TPA 25 nM
Protocol: as §1

estrogen receptors (ERs) = details: MCF-7 cells, background statement; cited from earlier work
MCF-7 cells = details: background statement; cited from earlier work
LIV21 [2] = details: TPA-treated MCF-7 lines; cited from earlier work
MCF-7 line = details: cited from earlier work
PKCzeta (PKCζ) = experiment: Western blotting of PKCzeta expression (internal control) under TPA treatment; format: cell-based, human
From the text: as §2

protein kinases C (PKCs) = details: MCF-7 cells, background statement; cited from earlier work
cells of benign tumors = details: background statement; cited from earlier work
normal breast cells = details: background statement; cited from earlier work
LIV21 [3] = experiment: Cell fractionation, LIV21 expression profile in cytoplasm and nuclear fraction; format: cell-based, human; details: cultures treated with peptide at 2 μM compared with TPA-treated cultures
From the text: The study of the specific role of the PKC epsilon on the nuclear translocation of Liv 21F can use a peptide which inhibits function PKC epsilon and the translocation like previously described but also according to the protocol of reference of Si RNA of PKC epsilon. The profile of expression observed corresponds to a doublet of tapes in the cytoplasm with approximately 51 KD (and with a tape of 64 kD according to the siRNA used) whereas it corresponds only to one simple tape with 50 kD in the nuclear fraction.

PKC = target: T2, PKC (Homo sapiens, UniProt Q02156); details: PKC-specific inhibitory peptide; cited from earlier work
T2 construct: endogenous in cells; host or cells: MCF-7
T2 sequence (Q02156 1-737): T1 sequence (Q02156 1-737)

LIV21 [4] = experiment: Immunocytochemistry of the nuclear translocation of LIV21; format: cell-based, human; details: peptide 2 μM, 12 h, compared with TPA 25 nM
From the text: To determine the specific action of PKCε on the translocation of LIV21, the crops were discussed with a peptide, selective antagonist of the function and translocation of this PKC (EAVSLKPT (SEQ ID No 6), and the results were compared with those obtained by processing with TP A. This peptide is recognized by the enzyme and links themselves as a substrate amended to the level of its catalytic site. Not phosphorylable, he acts as a specific inhibitor of the activity of PKCε.
The effect of the selective inhibition of the activity of PKCε on the nuclear translocation of LIV21 was studied by immunocytochemistry.

Compound	TGF Béta events (increase and nuclear accumulation of p27 via smad 2 and smad 3) (TGF Béta)	LIV21 localization (LIV21 [1])	PKCε expression (PKCε)	p130 localization (p130)	E2F4 localization (E2F4; after 12 h)	E2F4 localization (E2F4; after 48 h)	E2F4 localization (E2F4; at 72 h)	expression and function of estrogen receptors (ERs) (estrogen receptors (ERs))	migratory capacity of MCF-7 cells in vitro (MCF-7 cells)	LIV21 localization (LIV21 [2])	cancerous proliferation (MCF-7 line; TPA-treated MCF-7 lines)	cell differentiation (MCF-7 line; TPA-treated MCF-7 lines)	proliferation of the cells of human mammary tumor lines such as the MCF-7 line (MCF-7 line; background statement)	expression of PKCzeta (PKCζ) (PKCzeta (PKCζ))	translocation of protein kinases C (PKCs) from the cytosol to the membranes (protein kinases C (PKCs))	proliferation of the cells of benign tumors (cells of benign tumors)	growth of normal breast cells (normal breast cells)	LIV21 expression profile (LIV21 [3])	PKC activity versus expression (PKC)	nuclear translocation of LIV21 (LIV21 [4])
Fc1ccc(Cl)cc1-c1nc(Nc2ccncc2)c2nccnc2n1 [SD208]	All these events are locked																			
CCCCCCCCCCCCCC(=O)O[C@@H]1[C@@H](C)[C@@]2(O)[C@@H](C=C(CO)C[C@]3(O)C(=O)C(C)=C[C@@H]23)[C@H]2C(C)(C)[C@]12OC(C)=O [TPA, 12-0-tetradecanoyl phorbol-13-10 sumoate]		intranuclear green fluorescence signals	decreases from 30 min	intranuclear green fluorescence signals	intranuclear green fluorescence signals	comparable localization	disappears from the nucleus	greatly and rapidly inhibits	increases the migratory capacity	translocated into the nucleus	inhibition of cancerous proliferation	cell differentiation	drastically inhibits the proliferation	not sensitive	induces the time- and dose-dependent translocation	does not modify the proliferation	activates the growth	doublet in the cytoplasm and of a single band in the nuclear fraction		
EAVSLKPT [PKC inhibiting peptide]																		doublet in the cytoplasm and of a single band in the nuclear fraction	it was the activity and not the expression of PKC which was inhibited	effect identical to that of TPA
